Experimental data: patent publication US6589967B1, “Oxime O-ether compounds and fungicides for agricultural and horticultural use” (Nippon Soda Co. Ltd., priority 1999, dated 2003)

system: snap bean gray mold fungus (Botrytis cinerea); experiment: Test on Kidney Bean Gray Mold Control; format: in vivo; conditions: 50 ppm active ingredient, cut Kidney bean flowers (Nagauzura) dipped, spores sprayed, placed on detached leaves, 7 days at 20° C., high humidity
Method: Now, explanation is made on how the compounds according to the present invention are effective as an active ingredient of a fungicide for controlling various plant diseases with reference to Test examples described later. In the Test Examples, the control efficacy is determined by visually checking the infested state of the test plants at the time of observation, namely, checking the damage to the host plants and the developing state of the disease-causing fungus appeared on leaves, stems, etc. of the test plants, compared to the control test plants which are healthy. Flowers of Kidney bean (variety; Nagauzura) grown in a flat vessel for culturing seedlings are cut, and the cut flowers were dipped into a solution prepared by diluting the emulsifiable concentrate prepared for the compound of the present invention at a concentration of 50 ppm based on the active ingredient. After the dipping, the flowers were dried at a room temperature. Then, spore solution of snap bean gray mold fungus (Botrytis cinerea) was sprayed to the flowers. The flowers sprayed with spores of the gray mold fungus were placed on the leaves which were detached from healthy Kidney bean plants, and those leaves were placed in a room being maintained at 20° C. and high humidity with repeated lighting of 12 hours intervals, and the Kidney bean leaves were incubated in the room for 7 days. Then, the infestation degree by the fungus on the leaves was checked in comparison to the control healthy leaves to determine the control efficacy. […] Note that the compound numbers in the following correspond to the same compound numbers in the Table 1. Compound Nos. 1, 3, 6, 7, 11, 12, 13, 14, 15, 18, 20, 21, 22, 23, 25, 26, 27, 29, 36, 48, 49, 192, 194, 195, 196, 198, 201, 203, 204, 207, 208, 209, 210, 213, 216, 219, 220, 222, 223, 224, 225, 227, 228, 229, 231, 233, 234, 235, 236, 237, 239, 240, 242

Row | Compound | control performance (control efficacy)
1 | COc1cccc(OC)c1C(C)ON=Cc1cc(C)cc(C)n1 (racemic) [compound 239] | excellent control performance
2 | COc1cccc(F)c1CON=C(C)c1cc(C)cc(C)n1 [Compound No. 1, 1-(4,6-Dimethyl-2-pyridinyl)ethanone O-[(2-Fluoro-6-methoxyphenyl)methyl]oxime] | excellent control performance
3 | COc1cccc(C)c1CON=C(C)c1cc(C)cc(C)n1 [Compound No. 7, 1-(4,6-Dimethyl-2-pyridinyl)ethanone O-[(2-Methoxy-6-methylphenyl)methyl] Oxime] | excellent control performance
4 | COc1ccc(CON=C(C)c2cc(C)cc(C)n2)c(OC)c1 [Compound No. 13, 1-(4,6-Dimethyl-2-pyridinyl)ethanone O-[(2,4-Dimethoxyphenyl)methyl] Oxime] | excellent control performance
5 | COc1cccc(OC)c1CON=C(C)c1cc(Cl)cc(C)n1 [Compound No. 18, 1-(4-Chloro-6-methyl-2-pyridinyl)ethanone O-[(2,6-Dimethoxyphenyl)methyl] Oxime] | excellent control performance
6 | CCC(=NOCc1c(OC)cccc1OC)c1cc(C)cc(C)n1 [Compound No. 20] | excellent control performance
7 | COc1ccc(O)c(CON=C(C)c2cc(C)cc(C)n2)c1 [Compound No. 21] | excellent control performance
8 | COc1ccc(OC)c(CON=C(C)c2cc(C)cc(C)n2)c1 [Compound No. 22] | excellent control performance
9 | COCOc1cccc(OC)c1CON=C(C)c1cc(C)cc(C)n1 [Compound No. 23] | excellent control performance
10 | COc1cccc(CON=C(C)c2cc(C)cc(C)n2)c1O [Compound No. 25, 1-(4,6-Dimethyl-2-pyridinyl)ethanone O-[(2-hydroxy-3-methoxyphenyl)methyl] Oxime] | excellent control performance
11 | COc1cccc(OC)c1CON=Cc1cc(C)cc(C)n1 [Compound No. 196, 4,6-Dimethyl-2-pyridinecarboxyaldehyde O-[(2,6-Dimethoxyphenyl)methyl] Oxime] | excellent control performance
12 | COc1cccc(OC)c1CON=Cc1cc(Cl)cc(C)n1 [Compound No. 219, 4-Chloro-6-methyl-2-pyridinecarboxyaldehyde O-[(2,6-Dimethoxyphenyl)methyl] Oxime] | excellent control performance
13 | COc1cccc(N)c1CON=Cc1cc(C)cc(C)n1 [Compound No. 222, 4,6-Dimethyl-2-pyridinecarboxyaldehyde O-[(2-Methoxy-6-aminophenyl)methyl] Oxime] | excellent control performance
14 | CNc1cccc(OC)c1CON=Cc1cc(C)cc(C)n1 [Compound No. 223, 4,6-Dimethyl-2-pyridinecarboxyaldehyde O-[(2-Methoxy-6-methylaminophenyl)methyl] Oxime] | excellent control performance
15 | COc1cccc(N(C)C)c1CON=Cc1cc(C)cc(C)n1 [Compound No. 225, 4,6-dimethyl-2-pyridinecarboxyaldehyde O-[(2-methoxy-6-dimethylaminophenyl)methyl] oxime] | excellent control performance
16 | COc1cc(OC)c(CON=Cc2cc(C)cc(C)n2)c(OC)c1 [Compound No. 233, 4,6-Dimethyl-2-pyridinecarboxyaldehyde O-[(2,4,6-Trimethoxyphenyl)methyl]oxime] | excellent control performance
17 | COc1cccc(Br)c1CON=Cc1cc(C)cc(C)n1 [Compound No. 234, 4,6-Dimethyl-2-pyridinecarboxyaldehyde O-[(2-Methoxy-6-bromophenyl)methyl]oxime] | excellent control performance
18 | C#Cc1cccc(OC)c1CON=Cc1cc(C)cc(C)n1 [Compound No. 235, 4,6-Dimethyl-2-pyridinecarboxyaldehyde O-[(2-Methoxy-6-ethynylphenyl)methyl]oxime] | excellent control performance
19 | COc1ccc(Cl)c(OC)c1CON=C(C)c1cc(C)cc(C)n1 [compound 3] | excellent control performance
20 | COCOc1cc(OC)ccc1CON=C(C)c1cc(C)cc(C)n1 [compound 6] | excellent control performance
21 | COc1cccc(OC)c1C(C)ON=C(C)c1cc(C)cc(C)n1 (stereo not drawn) [compound 11] | excellent control performance
22 | COCOc1ccc(OC)cc1CON=C(C)c1cc(C)cc(C)n1 [compound 12] | excellent control performance
23 | COc1ccc(CON=C(C)c2cc(C)cc(C)n2)c(O)c1 [compound 14] | excellent control performance
24 | COc1cc(C)ccc1CON=C(C)c1cc(C)cc(C)n1 [compound 15] | excellent control performance

Row | Compound | control performance (control efficacy)
25 | COc1ccc(C)cc1CON=C(C)c1cc(C)cc(C)n1 [compound 26] | excellent control performance
26 | CCc1cccc(OC)c1CON=C(C)c1cc(C)cc(C)n1 [compound 27] | excellent control performance
27 | COc1cccc(Cl)c1CON=C(C)c1cc(C)cc(C)n1 [compound 29] | excellent control performance
28 | COc1cccc(C)c1CON=C(C)c1cc(C)ccn1 [compound 36] | excellent control performance
29 | COc1ccc(F)c(OC)c1CON=Cc1cc(C)cc(C)n1 [compound 48] | excellent control performance
30 | CC(=NOCc1ccc(C)cc1O)c1cc(C)cc(C)n1 [compound 49] | excellent control performance
31 | COCOc1cc(C)ccc1CON=C(C)c1cc(C)cc(C)n1 [compound 192] | excellent control performance
32 | COCOc1c(C)cccc1CON=C(C)c1cc(C)cc(C)n1 [compound 194] | excellent control performance
33 | COc1cccc(OC)c1CON=C(C)c1cc(C)cc(C)n1 [compound 195] | excellent control performance
34 | COc1ccc(F)c(F)c1CON=C(C)c1cc(C)cc(C)n1 [compound 198] | excellent control performance
35 | COc1c(F)ccc(F)c1CON=C(C)c1cc(C)cc(C)n1 [compound 201] | excellent control performance
36 | COc1cccc(C)c1CON=Cc1cc(C)cc(C)n1 [compound 203] | excellent control performance
37 | COc1cccc(F)c1CON=Cc1cc(C)cc(C)n1 [compound 204] | excellent control performance
38 | COc1cccc(CON=C(C)c2cc(C)cc(C)n2)c1OC(C)=O [compound 207] | excellent control performance
39 | COc1cc(C)cc(OC)c1CON=Cc1cc(C)cc(C)n1 [compound 208] | excellent control performance
40 | COc1cc(C)cc(OC)c1CON=C(C)c1cc(C)cc(C)n1 [compound 209] | excellent control performance
41 | C=Cc1cccc(OC)c1CON=Cc1cc(C)cc(C)n1 [compound 210] | excellent control performance
42 | COc1cc(Cl)cc(OC)c1CON=Cc1cc(C)cc(C)n1 [compound 213] | excellent control performance
43 | COc1cc(F)cc(OC)c1CON=Cc1cc(C)cc(C)n1 [compound 216] | excellent control performance
44 | COc1cccc(F)c1CON=Cc1cc(Cl)cc(C)n1 [compound 220] | excellent control performance
45 | COc1cc(F)c(CON=Cc2cc(C)cc(C)n2)c(OC)c1 [compound 224] | excellent control performance
46 | COc1cccc(OC(C)=O)c1CON=Cc1cc(C)cc(C)n1 [compound 227] | excellent control performance
47 | COc1cccc(OC)c1CON=Cc1cccc(C)n1 [compound 228] | excellent control performance
48 | COc1cccc(OC)c1CON=Cc1cc(Br)cc(C)n1 [compound 229] | excellent control performance
